Reference: patent publication US9555039B2, “Piperidine derivatives and compositions for the inhibition of nicotinamide phosphoribosyltransferase (NAMPT)” (Forma TM, LLC., priority 2011, dated 2017)

How the values were obtained:
[1] = target: T1, Recombinant His-tagged NAMPT (Homo sapiens, UniProt P43490); assay: Biochemical inhibition assay: NAMPT enzymatic reaction, NMN quantified by mass spectrometry; conditions: 33 nM NAMPT, 1 μM NAM, 100 μM PRPP, 2.5 mM ATP, 30 minutes at room temperature; read-out: Biochem IC50
T1 construct: His; host or cells: E. coli
T1 sequence (P43490 whole entry): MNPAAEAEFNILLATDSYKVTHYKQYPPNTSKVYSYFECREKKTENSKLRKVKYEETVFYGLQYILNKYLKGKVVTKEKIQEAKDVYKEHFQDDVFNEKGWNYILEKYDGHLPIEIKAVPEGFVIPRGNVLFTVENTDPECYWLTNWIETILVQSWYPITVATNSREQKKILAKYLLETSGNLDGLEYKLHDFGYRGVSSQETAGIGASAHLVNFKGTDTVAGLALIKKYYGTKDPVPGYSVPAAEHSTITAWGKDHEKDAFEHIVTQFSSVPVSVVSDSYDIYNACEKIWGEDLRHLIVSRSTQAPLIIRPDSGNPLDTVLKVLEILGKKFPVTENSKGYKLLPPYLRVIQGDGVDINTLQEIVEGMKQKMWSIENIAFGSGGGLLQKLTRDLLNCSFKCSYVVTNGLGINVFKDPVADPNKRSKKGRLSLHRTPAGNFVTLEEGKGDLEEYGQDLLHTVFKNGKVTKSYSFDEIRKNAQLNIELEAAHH
Protocol: Biochemical Inhibition Assay
NAMPT Protein Purification
Recombinant His-tagged NAMPT was produced in E. coli cells, purified over a Ni column, and further purified over a size-exclusion column by XTAL Biostructures.
The NAMPT Enzymatic Reaction
The NAMPT enzymatic reactions were carried out in Buffer A (50 mM Hepes pH 7.5, 50 mM NaCl, 5 mM MgCl2, and 1 mM THP) in 96-well V-bottom plates. The compound titrations were performed in a separate dilution plate by serially diluting the compounds in DMSO to make a 100× stock. […] The compound and enzyme mix was incubated for 15 minutes at room temperature, then 10 μL of 10× substrate and co-factors in Buffer A were added to the test well to make a final concentration of 1 μM NAM, 100 μM 5-Phospho-D-ribose 1-diphosphate (PRPP), and 2.5 mM Adenosine 5′-triphosphate (ATP). The reaction was allowed to proceed for 30 minutes at room temperature, then was quenched with the addition of 11 μL of a solution of formic acid and L-Cystathionine to make a final concentration of 1% formic acid and 10 μM L-Cystathionine. Background and signal strength was determined by addition (or non-addition) of a serial dilution of NMN to a pre-quenched enzyme and cofactor mix.
A mass spectrometry-based assay was used to measure the Nampt reaction product (NMN) and the internal control (L-Cystathionine). NMN and L-Cystathionine were detected using the services of Biocius Lifesciences with the RapidFire system. In short, the NMN and L-Cystathionine are bound to a graphitic carbon cartridge in 0.1% formic acid, eluted in 30% acetonitrile buffer, and injected into a Sciex 4000 mass spectrometer. The components of the sample were ionized with electrospray ionization and the positive ions were detected. […] The fragments are quantified and the analyzed by the following method.
First the NMN signal is normalized to the L-Cystathionine signal by dividing the NMN signal by the L-Cystathionine signal for each well. The signal from the background wells are averaged and subtracted from the test plates.
Wherein x denotes the average signal of the compound treated wells and y denotes the average signal of the DMSO treated wells.
IC50s are Determined Using Excel and this Formula.
Wherein X denotes the compound concentration 1, Y denotes the compound concentration 2, XX denotes the % inhibition at compound concentration 1 (X), and YY denotes the % inhibition at compound concentration 2 (Y).

[2] = test system: A2780 cells; assay: In-vitro cell proliferation assay (SRB, 72 hours); format: cell-based; conditions: Homo sapiens, sulforhodamine B (SRB) assay
Protocol: In-Vitro Cell Proliferation Assay
After overnight incubation at 37° C. and 5% CO2, the compound titrations were performed in a separate dilution plate by serially diluting the compounds in DMSO to make a 1000× stock. The compounds were then further diluted to 10× final concentration in culture media, whereupon 20 μL of each dilution was added to the plated cells with controls (e.g. DMSO and blank) to make a final volume of 200 μL. The final DMSO concentration in each well was 0.1%. The plates were then incubated for 72 hours at 37° C. in a 5% CO2 incubator. The number of viable cells was then assessed using sulforhodamine B (SRB) assay. Cells were fixed at 4° C. for 1 hour with the addition of 50 μL 30% trichloroacetic acid (TCA) to make a final concentration of 6% TCA. The plates were washed four times with H2O and allowed to dry for at least 1 hour, whereupon 100 μL of a 4% SRB in 1% acetic acid solution was added to each well and incubated at room temperature for at least 30 minutes. The plates were then washed three times with 1% acetic acid, dried, and treated with 100 μL of 10 mM Tris-Base solution. The plates were then read in a microplate reader at an absorbance of 570 nm. Background was generated on a separate plate with media only.
Method for Determining % Inhibition
First, the signals from the background plate are averaged, then the background was subtracted from the test plates.
wherein x denotes the average signal of the compound-treated cells and y denotes the average signal of the DMSO-treated cells.
wherein X denotes the compound concentration 1, Y denotes the compound concentration 2, XX denotes the % inhibition at compound concentration 1 (X), and YY denotes the % inhibition at compound concentration 2 (Y).

SMILES | IC50 [1] [nM] | IC50 [2] [nM]
Cn1cc(CC(=O)N2CCC(CCCCNC(=O)c3ccc4nccn4c3)CC2)c2ccccc21 [N-(4-{1-[2-(1-methyl-1H-indol-3-yl)acetyl]piperidin-4-yl}butyl)imidazo[1,2-a]pyridine-6-carboxamide] | 29.5 | 21.3
Cn1cc(CC(=O)N2CCC(CCCCNC(=O)c3cc4ccncc4s3)CC2)c2ccccc21 [N-(4-{1-[2-(1-methyl-1H-indol-3-yl)acetyl]piperidin-4-yl}butyl)thieno[2,3-c]pyridine-2-carboxamide] | 11.6 | 24
Cc1nc(CC(=O)N2CCC(CCCCNC(=O)c3cc4cnccc4[nH]3)CC2)cs1 [N-(4-{1-[2-(2-methyl-1,3-thiazol-4-yl)acetyl]piperidin-4-yl}butyl)-1H-pyrrolo[3,2-c]pyridine-2-carboxamide] | 49.4 | 13.9
Cc1nc(CC(=O)N2CCC(CCCCNC(=O)c3ccc4nccn4c3)CC2)cs1 [N-(4-{1-[2-(2-methyl-1,3-thiazol-4-yl)acetyl]piperidin-4-yl}butyl)imidazo[1,2-a]pyridine-6-carboxamide] | 18.9 | 28
Cc1nc(CC(=O)N2CCC(CCCCNC(=O)c3cc4ccncc4s3)CC2)cs1 [N-(4-{1-[2-(2-methyl-1,3-thiazol-4-yl)acetyl]piperidin-4-yl}butyl)thieno[2,3-c]pyridine-2-carboxamide] | 13.5 | 28.2
O=C(NCCCCC1CCN(S(=O)(=O)c2ccc(C(F)(F)F)nc2)CC1)c1cc2cnccc2[nH]1 [N-(4-{1-[6-(trifluoromethyl)pyridine-3-sulfonyl]piperidin-4-yl}butyl)-1H-pyrrolo[3,2-c]pyridine-2-carboxamide] | 81.5 | 29.8
O=C(NCCCCC1CCN(C(=O)c2ccc3ncsc3c2)CC1)c1cc2cnccc2[nH]1 [N-(4-{1-[(1,3-benzothiazol-6-yl)carbonyl]piperidin-4-yl}butyl)-1H-pyrrolo[3,2-c]pyridine-2-carboxamide] | 72.7 | 12.6
O=C(NCCCCC1CCN(C(=O)c2ccc3ncsc3c2)CC1)c1ccc2nccn2c1 [N-(4-{1-[(1,3-benzothiazol-6-yl)carbonyl]piperidin-4-yl}butyl)imidazo[1,2-a]pyridine-6-carboxamide] | 23.7 | 39.3
O=C(NCCCCC1CCN(C(=O)c2ccc3ncsc3c2)CC1)c1cc2ccncc2s1 [N-(4-{1-[(1,3-benzothiazol-6-yl)carbonyl]piperidin-4-yl}butyl)thieno[2,3-c]pyridine-2-carboxamide] | 32.3 | 35.4
CC(=O)N1CCC(C(=O)N2CCC(CCCCNC(=O)c3cc4cnccc4[nH]3)CC2)CC1 [N-(4-{1-[(1-acetylpiperidin-4-yl)carbonyl]piperidin-4-yl}butyl)-1H-pyrrolo[3,2-c]pyridine-2-carboxamide] | 134 | 23.9
CC(=O)N1CCC(C(=O)N2CCC(CCCCNC(=O)c3ccc4nccn4c3)CC2)CC1 [N-(4-{1-[(1-acetylpiperidin-4-yl)carbonyl]piperidin-4-yl}butyl)imidazo[1,2-a]pyridine-6-carboxamide] | 39.6 | 27.8
O=C(NCCCCC1CCN(C(=O)c2cc3ccccc3s2)CC1)c1cc2cnccc2[nH]1 [N-(4-{1-[(1-benzothiophen-2-yl)carbonyl]piperidin-4-yl}butyl)-1H-pyrrolo[3,2-c]pyridine-2-carboxamide] | 124 | 69.9
O=C(NCCCCC1CCN(C(=O)c2cc3ccccc3s2)CC1)c1ccc2nccn2c1 [N-(4-{1-[(1-benzothiophen-2-yl)carbonyl]piperidin-4-yl}butyl)imidazo[1,2-a]pyridine-6-carboxamide] | 25.8 | 71.8
O=C(NCCCCC1CCN(C(=O)c2cc3ccccc3s2)CC1)c1cc2ccncc2s1 [N-(4-{1-[(1-benzothiophen-2-yl)carbonyl]piperidin-4-yl}butyl)thieno[2,3-c]pyridine-2-carboxamide] | 17.7 | 100 to 1000
Cn1ccnc1C(=O)N1CCC(CCCCNC(=O)c2cc3cnccc3[nH]2)CC1 [N-(4-{1-[(1-methyl-1H-imidazol-2-yl)carbonyl]piperidin-4-yl}butyl)-1H-pyrrolo[3,2-c]pyridine-2-carboxamide] | 76.5 | 23.6
Cn1cnc(C(=O)N2CCC(CCCCNC(=O)c3cc4cnccc4[nH]3)CC2)c1 [N-(4-{1-[(1-methyl-1H-imidazol-4-yl)carbonyl]piperidin-4-yl}butyl)-1H-pyrrolo[3,2-c]pyridine-2-carboxamide] | 93.7 | 55
Cn1cnc(C(=O)N2CCC(CCCCNC(=O)c3ccc4nccn4c3)CC2)c1 [N-(4-{1-[(1-methyl-1H-imidazol-4-yl)carbonyl]piperidin-4-yl}butyl)imidazo[1,2-a]pyridine-6-carboxamide] | 56.7 | 107
Cn1c(C(=O)N2CCC(CCCCNC(=O)c3cc4cnccc4[nH]3)CC2)cc2ccccc21 [N-(4-{1-[(1-methyl-1H-indol-2-yl)carbonyl]piperidin-4-yl}butyl)-1H-pyrrolo[3,2-c]pyridine-2-carboxamide] | 134 | 23.8
Cn1c(C(=O)N2CCC(CCCCNC(=O)c3ccc4nccn4c3)CC2)cc2ccccc21 [N-(4-{1-[(1-methyl-1H-indol-2-yl)carbonyl]piperidin-4-yl}butyl)imidazo[1,2-a]pyridine-6-carboxamide] | 124 | 55.1
Cn1c(C(=O)N2CCC(CCCCNC(=O)c3cc4ccncc4s3)CC2)cc2ccccc21 [N-(4-{1-[(1-methyl-1H-indol-2-yl)carbonyl]piperidin-4-yl}butyl)thieno[2,3-c]pyridine-2-carboxamide] | 65 | 100 to 1000
O=C(NCCCCC1CCN(C(=O)c2cc3ccccc3[nH]2)CC1)c1cc2cnccc2[nH]1 [N-(4-{1-[(1H-indol-2-yl)carbonyl]piperidin-4-yl}butyl)-1H-pyrrolo[3,2-c]pyridine-2-carboxamide] | 125 | 60.3
O=C(NCCCCC1CCN(C(=O)c2cc3ccccc3[nH]2)CC1)c1ccc2nccn2c1 [N-(4-{1-[(1H-indol-2-yl)carbonyl]piperidin-4-yl}butyl)imidazo[1,2-a]pyridine-6-carboxamide] | 61.6 | 100 to 1000
O=C(NCCCCC1CCN(C(=O)c2cc3ccccc3[nH]2)CC1)c1cc2ccncc2s1 [N-(4-{1-[(1H-indol-2-yl)carbonyl]piperidin-4-yl}butyl)thieno[2,3-c]pyridine-2-carboxamide] | 33.5 | 100 to 1000
O=C(NCCCCC1CCN(C(=O)c2ccc3[nH]ccc3c2)CC1)c1cc2cnccc2[nH]1 [N-(4-{1-[(1H-indol-5-yl)carbonyl]piperidin-4-yl}butyl)-1H-pyrrolo[3,2-c]pyridine-2-carboxamide] | 39.4 | 13.5
O=C(NCCCCC1CCN(C(=O)c2ccc3[nH]ccc3c2)CC1)c1ccc2nccn2c1 [N-(4-{1-[(1H-indol-5-yl)carbonyl]piperidin-4-yl}butyl)imidazo[1,2-a]pyridine-6-carboxamide] | 19.5 | 18.5
O=C(NCCCCC1CCN(C(=O)c2ccc3[nH]ccc3c2)CC1)c1cc2ccncc2s1 [N-(4-{1-[(1H-indol-5-yl)carbonyl]piperidin-4-yl}butyl)thieno[2,3-c]pyridine-2-carboxamide] | 42.7 | 71.1
